Measurements from patent US9085605B2, “Chemical synthesis and anti-tumor and anti-metastatic effects of dual functional conjugate” (Shenzhen Salubris Pharmaceuticals Co., Ltd., priority 2010, dated 2015).
Read-outs that look alike come from different tables or passages of the source.

How the values were obtained:
[1] = tested on: Mice breast cancer cell line (4T1, ATCC CRL2539); conditions: TAXOL 3 mg/kg i.p. once daily
Experimental: Mice breast cancer cell line (4T1, ATCC CRL2539) was a generous gift from Prof. Wei Liang of the Institute of biophysics, Chinese Academy of Sciences. The cell was cultured in the 1640 medium (Gibco) containing 10% fetal bovine serum (FBS), 1% glutamine and 1% penicillin.
4T1 cells in logarithmic phase were collected and the concentration was adjusted to 2×10^6/mL. 4T1 tumors were introduced in female BALB/c mice by injecting subcutaneously into the fourth fat pad area of the right abdominal mammary gland with the dose of 2×10^5/0.1 mL. […] From the 9th day after implantation, tumor growth was measured every 2 days with vernier calipers for determining the long diameter and short diameter of tumor. Tumor volume was calculated by the formula (½)×long diameter×short diameter^2. Drug was withdrawn on the twenty-eight days after the implantation, all mice were then sacrificed and the body weight were measured. The tumors, spleen and lung were removed and weighed. The lungs were fixed in Bouin's fixative for 24 h. The numbers of lung metastasis nodule were counted, the statistics was evaluated using Mann-Whitney U test.

[2] = tested on: Human lung cancer H460; conditions: for TGI: 24 mg/kg
Description: Through cell culture in vitro, the tumor was inoculated on nude mice, the tumor grew and passaged for the experiment use. • Animals: BALB/c nude mice, ♀, 4˜5 weeks old, were obtained from the Experimental Lab, Chinese Academy of Medical Science, Certificate NO. […] Experiment Method:
The tumor-bearing mice with good tumor growth and good general physical condition were selected and sacrificed. Tumor was isolated in a sterile condition and cut into fragments (diameter for about 2-3 mm) by surgical knife. The fragments were then hypodermically inoculated in posterior axillary of nude mice by means of a trocar.
After the tumors grew naturally for eight days, the average volume of tumors reaches 130 mm^3. The length and width of tumor was measured using vernier calipers, and divided into groups by the tumor volume.
The mice were divided into five groups for observation, each groups had eight mice. […] Respective drug was administrated for each group from the grouping day.
The experiment was terminated 24 hours after the last administration.
During the experimentation, the tumors sizes (length and width) and body weights of mice were measured once every three days. The tumor volume (TV) and relative tumor volume (RTV) were calculated according to the method for references, and the tumor volume growth tendency chart was plotted.
At the end of the experiment, the mice were sacrificed. Tumors were removed and weighed, and the inhibition rate of the tumor growth by drugs was calculated. Statistical significance of the tumor weight, tumor volume and RTV level were evaluated by t-test.
[formula] • (C, average tumor weight of control group; T, average tumor weight of administrated group) • Tumor Volume (TV)=length×width^2/2. • Relative Tumor Volume (RTV) formula: Vt/Vo • (Vo is the volume of TV at the beginning of the grouping, and Vt is the volume of TV at measure time) • Anti-tumor activities were evaluated by Tumor Relative proliferation Rate T/C (%)
[formula] • Therapeutic effect evaluation standard: T/C (%)>40, was judged as invalid; • T/C (%)≦40, and through statistical evaluation P<0.05, was judged as valid.

[3] = tested on: lewis lung cancer; experiment: Anti-artificial metastasis on Lewis lung cancer in mice (intravenous inoculation); assay type: in vivo, C57Bl/6 mice; conditions: TAXOL 3 mg/kg i.p.
Experimental: The suspension (0.2 mL/mice, 3×10^5 tumor cell) was inoculated intravenously into the tails of fifty C57Bl/6 mice. […] The tumors, spleen and lung were removed and weighed.

[4] = tested on: lewis lung cancer; conditions: TAXOL 6 mg/kg i.p. once daily
Experimental: C57Bl/6 mice with lewis lung cancer were sacrificed and the tumor was removed. The tumor cell suspension (5×10^6 cell/mL) was prepared in a sterile condition. The suspension (0.2 mL/mice, 1×10^6 tumor cell) was inoculated subcutaneously into the axillary of 24 C57Bl/6 mice. […] From the 7th day after the implantation, the long diameter and short diameter of tumor was measured every 2 days. Tumor volume was calculated by the formula (½)×long diameter×short diameter^2. Drug was withdrawn on the eighteenth day after the implantation. All mice were then sacrificed and the body weight was measured. The tumors, spleen and lung were removed and weighed. The lungs were fixed in Bouin's fixative for 24 h. The numbers of lung metastasis nodule were counted, and the statistics was evaluated by Mann-Whitney U test.

[5] = tested on: human breast cancer line MDA-MB-231; experiment: Tumor growth inhibition in nude mice xenograft model, MDA-MB-231; conditions: Paclitaxel 24 mg/kg × 4, intermittent i.p.
Experimental: • 1. […] Drug administration dose were set as: 10 mg/kg, 15 mg/kg, and 20 mk/kg, drug administration volume was 0.2 mL/20 g. • 2. […] MDA [Peptide (P) 0.54 mg/mL (0.001M), Example 10], a colorless and clear liquid, was prepared by the commission, can be directly used after the repackaging in a sterile condition, stored at 4° C. […] Certificate NO. […] SYSK (BeiJing) 2004-0001. Experiment Methods:
The mice were divided into groups and administrated drug after 11 days.
The mice were divided into eight groups, each group had 6-8 mice. The groups contained Negative control. […] After grouping, all mice were administrated with drug by intraperitoneal injection once a day depends on their body weight.
Other groups were administered with drugs for 24 times successively. The experiment was completed 24 h after the last administration.
The mice were sacrificed, and tumors were isolated and their weight was measured, and the inhibition rate of tumor growth by drugs were calculated. […] Calculation methods and formula were omitted.

[6] = Paclitaxel injection 24 mg/kg × 4, once every three days

**Q.** With `CC(=O)O[C@H]1C(=O)[C@@]2(C)[C@H]([C@H](OC(=O)c3ccccc3)[C@]3(O)C[C@H](OC(=O)[C@H](O)[C@@H](NC(=O)c4ccccc4)c4ccccc4)C(C)=C1C3(C)C)[C@]1(OC(C)=O)CO[C@@H]1C[C@@H]2O` [Paclitaxel, reference compound] as the compound, how does the Lung weight [1] read?
**A.** 190 ± 49 mg

**Q.** And the “Lung metastasis nodule counts” value ([1]; listed as TAXOL)?
**A.** 41.2 ± 9

**Q.** And the “Lung metastasis nodule counts” value ([1]; listed as Taxol)?
**A.** no significant improvement

**Q.** What about the “Body weight Beginning” value [2, 6] of the same compound?
**A.** 18.9 ± 1.28 g

**Q.** And the “Body weight End” value [2, 6]?
**A.** 18.6 ± 1.41 g

**Q.** What about the RTV [2, 6] of the same compound?
**A.** 11.9 ± 3.16

**Q.** And the T/C [2, 6]?
**A.** 35.6%

**Q.** What about the “Tumor volume Beginning” value [2, 6] of the same compound?
**A.** 130 ± 36.7 mm^3

**Q.** What about the “Tumor volume End” value [2, 6] of the same compound?
**A.** 1583 ± 507.2 mm^3

**Q.** And the Tumor weight [2, 6]?
**A.** 1.16 ± 0.410 g

**Q.** What about the TGI ([2]; Paclitaxel injection 24 mg/kg × 4, once every three days, listed as Paclitaxel injection) of the same compound?
**A.** 61.0%

**Q.** What about the TGI ([2]; Paclitaxel injection 24 mg/kg × 4, once every three days, listed as paclitaxel) of the same compound?
**A.** 61%

**Q.** And the “Body weight lost compared with the average weight at the beginning of grouping” value ([2]; paclitaxel 24 mg/kg intermittently)?
**A.** 2

**Q.** And the “Tumor growth inhibition rate compared with negative control” value ([2]; paclitaxel 24 mg/kg, after the fourth administration)?
**A.** 65%

**Q.** And the Lung weight [3]?
**A.** 497 ± 491 mg

**Q.** What about the “Lung metastasis nodule counts” value ([3]; listed as TAXOL) of the same compound?
**A.** 38.5 ± 28

**Q.** And the “Lung metastasis nodule counts” value ([3]; listed as Taxol)?
**A.** no significant improvement

**Q.** And the “Lung metastasis nodule counts” value ([4]; listed as TAXOL)?
**A.** 24.9 ± 9

**Q.** And the “Lung metastasis nodule counts” value ([4]; listed as Taxol)?
**A.** no significant improvement

**Q.** And the RTV [5]?
**A.** 3.18 ± 2.735

**Q.** What about the T/C [5] of the same compound?
**A.** 17.64%

**Q.** What about the TGI [5] of the same compound?
**A.** 84.9%

**Q.** What about the “Tumor volume Beginning” value [5] of the same compound?
**A.** 133 ± 39.8 mm^3

**Q.** And the “Tumor volume End” value [5]?
**A.** 422 ± 404.6 mm^3

**Q.** What about the Tumor weight [5] of the same compound?
**A.** 0.43 ± 0.416 g
